# Measured values taken from PMC9385959, “Mammalian derived lipocalin and secretoglobin respiratory allergens strongly bind ligands with potentially immune modulating properties” (Frontiers in Allergy, 2022).
# pEC50, pKd: −log10 of the molar value. Several values for one entry are separate records, joined by “and”; a condition that tells them apart may be missing. Identical values can stand only once. Like-named read-outs stand apart in the source and are kept apart here.
# Assays:
# Can f 1 = molecular target: T1, Can f 1 (Canis lupus familiaris, UniProt O18873); test: Fluorochrome binding to Can f 1 (emission spectra and titration); parameters: species or system dog
# T1 construct: made in house; host or cells: E. coli Rosetta-gami 2(DE3)
# T1 sequence (O18873 19-174): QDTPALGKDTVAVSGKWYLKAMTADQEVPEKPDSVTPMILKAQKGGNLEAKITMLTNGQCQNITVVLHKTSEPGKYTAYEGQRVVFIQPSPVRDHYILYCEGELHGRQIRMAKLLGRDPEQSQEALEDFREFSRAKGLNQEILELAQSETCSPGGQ
# Procedure: (§1) Stock solutions were prepared at a concentration of 10 mM in 100% ethanol for the fluorochromes 1-aminoanthracene (1-AMA), 8-anilino-1-naphthalensulfonic acid (1,8-ANS) and for all ligands, and in 100% methanol for n-phenyl-1-naphthylamine (1-NPN), respectively. Iron catecholate ligands (siderophores) were prepared as previously described ([46]). Fluorochrome-protein complexes were analyzed at an equimolar concentration of 5 μM in PBS with 5% ethanol in a volume of 100 μL per well in black 96-well non-binding microplates (Greiner Bio-One GmbH, Frickenhausen, Germany). Solutions containing only protein or the respective fluorescent probe in PBS with 5% ethanol served as controls. Fluorochrome-protein complexes were incubated with orbital shaking for 10 min at 500 rpm at room temperature (RT) before measurement using the fluorescence reader TECAN Infinite 200 Pro (Tecan Trading AG, Switzerland). Excitation wavelengths were fixed at 380 nm for 1-AMA and 1,8-ANS, and 337 nm for 1-NPN. Fluorescence emission spectra were recorded in 5 nm steps between 420 and 560 nm for 1-AMA and 1,8-ANS and between 380 and 500 nm for 1-NPN. The establishment of fluorescent quenching assay parameters for each allergen is explained in the results Section Fluorescence-quenching assay set up. Binding affinities were analyzed by non-linear regression in GraphPad Prism Version 9.3.1 (GraphPad Software, LLC). For the ligand competition assays, ligands were added to fluorochrome-allergen complexes with a final buffer composition of 5% ethanol in PBS in a volume of 100 μL and incubated for 30 min at 500 rpm at RT and further equilibrated for another 30 min without shaking before fluorescence measurement. […]
# (§2) For each allergen, we identified a suitable fluorescence probe by adding equimolar concentrations of either 1-AMA or 1,8-ANS to the recombinant proteins. […] Fluorescence intensities increased 20–60-fold upon binding. […] Respective Kd were calculated after background subtraction (Figure 4B). […]
# (§3) We evaluated the binding affinities of the fluorochromes to the allergens by dose-dependent titration curves. […]
# human LCN1 = molecular target: T2, human LCN1 (Homo sapiens, UniProt P31025); test: Fluorochrome binding to LCN1 (emission spectra and titration); settings: for pKd: multiple binding site analysis
# T2 construct: made in house; host or cells: E. coli Rosetta-gami 2(DE3)
# T2 sequence (P31025 19-176): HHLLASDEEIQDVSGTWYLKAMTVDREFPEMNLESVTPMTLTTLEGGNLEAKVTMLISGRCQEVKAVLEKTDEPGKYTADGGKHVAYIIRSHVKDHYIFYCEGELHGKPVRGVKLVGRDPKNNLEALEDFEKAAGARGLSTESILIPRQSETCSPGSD
# Procedure: (§4) Stock solutions were prepared at a concentration of 10 mM in 100% ethanol for the fluorochromes 1-aminoanthracene (1-AMA), 8-anilino-1-naphthalensulfonic acid (1,8-ANS) and for all ligands, and in 100% methanol for n-phenyl-1-naphthylamine (1-NPN), respectively. Iron catecholate ligands (siderophores) were prepared as previously described ([46]). Fluorochrome-protein complexes were analyzed at an equimolar concentration of 5 μM in PBS with 5% ethanol in a volume of 100 μL per well in black 96-well non-binding microplates (Greiner Bio-One GmbH, Frickenhausen, Germany). Solutions containing only protein or the respective fluorescent probe in PBS with 5% ethanol served as controls. Fluorochrome-protein complexes were incubated with orbital shaking for 10 min at 500 rpm at room temperature (RT) before measurement using the fluorescence reader TECAN Infinite 200 Pro (Tecan Trading AG, Switzerland). Excitation wavelengths were fixed at 380 nm for 1-AMA and 1,8-ANS, and 337 nm for 1-NPN. Fluorescence emission spectra were recorded in 5 nm steps between 420 and 560 nm for 1-AMA and 1,8-ANS and between 380 and 500 nm for 1-NPN. The establishment of fluorescent quenching assay parameters for each allergen is explained in the results Section Fluorescence-quenching assay set up. Binding affinities were analyzed by non-linear regression in GraphPad Prism Version 9.3.1 (GraphPad Software, LLC). For the ligand competition assays, ligands were added to fluorochrome-allergen complexes with a final buffer composition of 5% ethanol in PBS in a volume of 100 μL and incubated for 30 min at 500 rpm at RT and further equilibrated for another 30 min without shaking before fluorescence measurement.
# (§5) We established four specific parameters for each allergen to set up a fluorescence quenching assay for screening a large array of potential ligands: (i) a compatible fluorochrome, (ii) the optimal emission wavelength to analyze the fluorescence intensities of the fluorochrome-allergen complex, (iii) the binding affinities of the fluorochrome-allergen complex (Kd values) and (iv) optimal fluorochrome concentrations (EC50 values).
# For each allergen, we identified a suitable fluorescence probe by adding equimolar concentrations of either 1-AMA or 1,8-ANS to the recombinant proteins. […] 1-AMA was chosen for the guinea pig lipocalin Cav p 1 isoallergens, rabbit lipocalin Ory c 2, and rabbit secretoglobin Ory c 3. Fluorescence intensities increased 20–60-fold upon binding. While the emission maxima shifted from 565 to 485 nm for lipocalin fluorochrome-allergen pairs, the blue shift was less pronounced for the Ory c 3 secretoglobin-1-AMA complex to 505 nm (Figure 4B). […] Respective Kd were calculated after background subtraction (Figure 4B). […]
# We evaluated the binding affinities of the fluorochromes to the allergens by dose-dependent titration curves. […] Fluorescence intensities were recorded at specific emission maxima for each fluorochrome-allergen complex, determined using the emission spectra shown in Figure 4. We analyzed the specific binding of fluorochrome-allergen complexes by non-linear regression and calculated equilibrium dissociation constants (Kd) and EC50 values (Table 2). […] We chose a one-site specific binding model for all allergens, except for human LCN1, where multiple binding site analysis emerged as the model of best fit and two Kd values were calculated. […]
# Fel d 1 = molecular target: T3, Fel d 1 (Felis catus, UniProt P30438+P30440); test: Fluorochrome binding to Fel d 1 (emission spectra and titration); parameters: species or system cat; settings: for Increase of fluorescence intensity upon binding: 5 μM Fel d 1 with 5 μM fluorochrome
# T3 construct: polyhistidine tag (C); made in house; host or cells: E. coli Rosetta-gami 2
# T3 sequence (P30438+P30440 with tags, fused parts or gaps): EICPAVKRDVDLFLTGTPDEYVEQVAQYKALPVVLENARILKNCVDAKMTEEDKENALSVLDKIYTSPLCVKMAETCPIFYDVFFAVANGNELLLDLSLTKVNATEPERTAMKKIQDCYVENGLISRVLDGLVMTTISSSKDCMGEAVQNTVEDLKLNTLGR
# Procedure: as §4, §5
# (§6) For each allergen, we identified a suitable fluorescence probe by adding equimolar concentrations of either 1-AMA or 1,8-ANS to the recombinant proteins. […] 1-AMA was chosen for the guinea pig lipocalin Cav p 1 isoallergens, rabbit lipocalin Ory c 2, and rabbit secretoglobin Ory c 3. Fluorescence intensities increased 20–60-fold upon binding. While the emission maxima shifted from 565 to 485 nm for lipocalin fluorochrome-allergen pairs, the blue shift was less pronounced for the Ory c 3 secretoglobin-1-AMA complex to 505 nm (Figure 4B). […] Respective Kd were calculated after background subtraction (Figure 4B). As ethanol gave a high background with 1-NPN, these experiments were carried out with methanol to […] the signal-to-noise-ratio.
# (§7) We evaluated the binding affinities of the fluorochromes to the allergens by dose-dependent titration curves. Increasing fluorochrome concentrations were added to a fixed protein concentration of 5 μM until saturation (Figure 5). Fluorescence intensities were recorded at specific emission maxima for each fluorochrome-allergen complex, determined using the emission spectra shown in Figure 4. We analyzed the specific binding of fluorochrome-allergen complexes by non-linear regression and calculated equilibrium dissociation constants (Kd) and EC50 values (Table 2). EC50 values are equal to fluorochome concentrations in which half of the allergen binding sites are saturated and these concentrations were used in subsequent ligand competition assays. We chose a one-site specific binding model for all allergens, except for human LCN1, where multiple binding site analysis emerged as the model of best fit and two Kd values were calculated. Evidence for internal and external binding sites for 1,8-ANS and LCN1 were already reported ([58]).
# Fel d 4 = molecular target: T4, Fel d 4 (Felis catus, UniProt Q5VFH6); test: Fluorochrome binding to Fel d 4 (emission spectra and titration); parameters: species or system cat; settings: 5 μM Fel d 4 with 5 μM fluorochrome
# T4 construct: polyhistidine tag (C); made in house; host or cells: E. coli Rosetta-gami 2
# T4 sequence (Q5VFH6 16-186): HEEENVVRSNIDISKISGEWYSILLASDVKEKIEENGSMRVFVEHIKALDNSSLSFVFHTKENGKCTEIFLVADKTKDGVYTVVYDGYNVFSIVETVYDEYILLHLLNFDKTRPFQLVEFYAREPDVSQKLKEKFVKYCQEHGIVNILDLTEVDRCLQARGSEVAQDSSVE
# Procedure: as §4, §5, §6, §7
# Can f 6 = molecular target: T5, Can f 6 (Canis lupus familiaris, UniProt H2B3G5); test: Fluorochrome binding to Can f 6 (emission spectra and titration); parameters: species or system dog; settings: 5 μM Can f 6 with 5 μM fluorochrome
# T5 construct: polyhistidine tag (C); made in house; host or cells: E. coli Rosetta-gami 2
# T5 sequence (H2B3G5 16-190): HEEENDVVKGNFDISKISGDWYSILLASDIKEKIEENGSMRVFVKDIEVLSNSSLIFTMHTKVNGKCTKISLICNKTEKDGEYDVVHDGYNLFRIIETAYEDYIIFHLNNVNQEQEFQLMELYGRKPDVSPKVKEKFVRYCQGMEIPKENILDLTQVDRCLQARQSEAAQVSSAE
# Procedure: as §4, §5, §6, §7
# Cav p 1.0101 = Cav p 1.0101 (Cavia porcellus, UniProt A0A484HM70, S19A); test: Fluorochrome binding to Cav p 1.0101 (emission spectra and titration); parameters: species or system guinea pig; settings: 5 μM Cav p 1.0101
# Chain of Cav p 1.0101 (A0A484HM70 entry or part of it S19A): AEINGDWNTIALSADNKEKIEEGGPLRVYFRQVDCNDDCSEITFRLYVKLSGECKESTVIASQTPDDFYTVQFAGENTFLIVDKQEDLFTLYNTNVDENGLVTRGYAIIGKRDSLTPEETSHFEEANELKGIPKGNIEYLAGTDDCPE
# Procedure: as §1, with “LLC).” for “LLC). For the ligand competition assays, ligands were added to fluorochrome-allergen complexes with a final buffer composition of 5% ethanol in PBS in a volume of 100 μL and incubated for 30 min at 500 rpm at RT and further equilibrated for another 30 min without shaking before fluorescence measurement.”
# Cav p 1.0201 = Cav p 1.0201 (Cavia porcellus, UniProt A0A484HRI4); test: Fluorochrome binding to Cav p 1.0201 (emission spectra and titration); parameters: species or system guinea pig; settings: 5 μM Cav p 1.0201
# Chain of Cav p 1.0201 (A0A484HRI4 entry or part of it): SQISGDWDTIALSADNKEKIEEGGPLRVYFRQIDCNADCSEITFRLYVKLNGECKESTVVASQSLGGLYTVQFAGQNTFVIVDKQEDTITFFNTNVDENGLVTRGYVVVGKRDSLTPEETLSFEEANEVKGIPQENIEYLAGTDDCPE
# Procedure: as §1, with “LLC).” for “LLC). For the ligand competition assays, ligands were added to fluorochrome-allergen complexes with a final buffer composition of 5% ethanol in PBS in a volume of 100 μL and incubated for 30 min at 500 rpm at RT and further equilibrated for another 30 min without shaking before fluorescence measurement.”
# Ory c 2 = test: Fluorochrome binding to Ory c 2 (emission spectra and titration); parameters: species or system rabbit
# Procedure: as §1, §2, §3
# Ory c 3 = Ory c 3 (Oryctolagus cuniculus, UniProt Q9GK63+Q9GK67); test: Fluorochrome binding to Ory c 3 (emission spectra and titration); parameters: species or system rabbit; settings: 5 μM Ory c 3
# Chain of Ory c 3 (Q9GK67 entry or part of it): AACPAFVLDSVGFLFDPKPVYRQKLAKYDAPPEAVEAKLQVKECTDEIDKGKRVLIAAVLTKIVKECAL
# Chain of Ory c 3 (Q9GK63 entry or part of it): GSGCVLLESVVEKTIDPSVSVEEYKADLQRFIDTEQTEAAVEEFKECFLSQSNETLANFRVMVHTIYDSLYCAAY
# Procedure: as §1, with “LLC).” for “LLC). For the ligand competition assays, ligands were added to fluorochrome-allergen complexes with a final buffer composition of 5% ethanol in PBS in a volume of 100 μL and incubated for 30 min at 500 rpm at RT and further equilibrated for another 30 min without shaking before fluorescence measurement.”
# [1] = one-site specific binding, read-out: Fluorochrome dissociation constant Kd
# [2] = read-out: EC50 fluorochrome concentration
smiles,measurement,setting,value
"O=S(=O)(O)c1cccc2cccc(Nc3ccccc3)c12 [1,8-ANS, 8-anilino-1-naphthalensulfonic acid]",pEC50,"Can f 1; 5 μM Can f 1, half of the allergen binding sites saturated, read-out: EC50 fluorochrome concentration",5.19
same,pKd,"Can f 1; 5 μM Can f 1, one-site specific binding, read-out: Fluorochrome dissociation constant Kd",5.17
same,Increase of fluorescence intensity upon binding,Can f 1; 5 μM Can f 1 with 5 μM fluorochrome,> 100 fold
same,pKd,"human LCN1; 5 μM LCN1, first binding site, read-out: Fluorochrome dissociation constant Kd",5.30
same,pKd,"human LCN1; 5 μM LCN1, second binding site, read-out: Fluorochrome dissociation constant Kd, second binding site",4.19
same,pEC50,"human LCN1; 5 μM LCN1, read-out: EC50 fluorochrome concentration",5.15
same,Increase of fluorescence intensity upon binding,human LCN1; 5 μM LCN1 with 5 μM fluorochrome,> 100 fold
same,Kd at the second binding site relative to the first (higher Kd),human LCN1; LCN1,13 fold
same,pKd,"Fel d 1; 5 μM Fel d 1, one-site specific binding, read-out: Fluorochrome dissociation constant Kd",3.83
same,pEC50,"Fel d 1; 5 μM Fel d 1, read-out: EC50 fluorochrome concentration",4.00
same,Increase of fluorescence intensity upon binding,Fel d 1,8 fold
same,Increase of fluorescence intensity upon binding,Fel d 4,neither reacted
same,Increase of fluorescence intensity upon binding,Can f 6,neither reacted
"Nc1cccc2cc3ccccc3cc12 [1-AMA, 1-aminoanthracene]",pKd,Cav p 1.0101; [1],5.18
same,pEC50,Cav p 1.0101; [2],5.31 and 5.30
same,pKd,Cav p 1.0201; [1],4.86
same,pEC50,Cav p 1.0201; [2],5.04
same,pKd,"Ory c 2; 5 μM Ory c 2, one-site specific binding, read-out: Fluorochrome dissociation constant Kd",5.24
same,pEC50,"Ory c 2; 5 μM Ory c 2, read-out: EC50 fluorochrome concentration",5.38
same,Increase of fluorescence intensity upon binding,"Ory c 2; 5 μM Ory c 2 with 5 μM fluorochrome, range stated for four allergens together",20–60 fold
same,pKd,Ory c 3; [1],5.05
same,pEC50,Ory c 3; [2],5.16
same,Increase of fluorescence intensity upon binding,Fel d 1,negligible interactions
same,Increase of fluorescence intensity upon binding,Fel d 4,neither reacted
same,Increase of fluorescence intensity upon binding,Can f 6,neither reacted
